Reference: ChEMBL document CHEMBL5528083, “Discovery of a Novel Thienopyrimidine Compound as a Urate Transporter 1 and Glucose Transporter 9 Dual Inhibitor with Improved Efficacy and Favorable Druggability” (J Med Chem, 2024)

What was measured:
[1] = AUC (0 to t) in Sprague-Dawley rat at 2 mg/kg, iv measured upto 24 hrs by LC-MS/MS-AR analysis; assay type: ADME, organism-based; conditions: in vivo
[2] = Toxicity in Kunming female mouse assessed as coagulation necrosis of hepatocyte at 100 mg/kg, po administered every other day for 14 days by H and E staining based assay; assay type: organism-based; conditions: 336 h, time 14 day
[3] = MRT (0 to infinity) in Sprague-Dawley rat at 2 mg/kg, iv measured upto 24 hrs by LC-MS/MS-AR analysis; assay type: ADME, organism-based; conditions: in vivo
[4] = Tmax in Sprague-Dawley rat at 2 mg/kg, po measured upto 24 hrs by LC-MS/MS-AR analysis; assay type: ADME, organism-based; conditions: in vivo
Cytochrome P450 2D6 = Cytochrome P450 2D6 (Homo sapiens, UniProt P10635); assay: Inhibition of CYP2D6 in human liver microsomes measured after 40 mins incubation by LC-MS/MS analysis; assay type: ADME, Microsome
Sequence of Cytochrome P450 2D6 (P10635 whole entry): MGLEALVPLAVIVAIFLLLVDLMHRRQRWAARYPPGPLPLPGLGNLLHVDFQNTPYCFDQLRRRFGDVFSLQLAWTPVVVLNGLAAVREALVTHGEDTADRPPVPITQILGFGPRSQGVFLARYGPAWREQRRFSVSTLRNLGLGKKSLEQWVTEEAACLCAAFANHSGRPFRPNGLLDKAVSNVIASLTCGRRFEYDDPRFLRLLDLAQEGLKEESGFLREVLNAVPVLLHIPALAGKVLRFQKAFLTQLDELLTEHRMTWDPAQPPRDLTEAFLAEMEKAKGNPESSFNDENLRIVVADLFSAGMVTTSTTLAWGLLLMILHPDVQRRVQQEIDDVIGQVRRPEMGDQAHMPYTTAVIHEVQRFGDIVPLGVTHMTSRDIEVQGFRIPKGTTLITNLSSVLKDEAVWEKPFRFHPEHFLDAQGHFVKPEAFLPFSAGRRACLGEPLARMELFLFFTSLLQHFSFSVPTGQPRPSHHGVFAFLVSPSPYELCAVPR

[5] = Oral bioavailability in Sprague-Dawley rat at 2 mg/kg measured upto 24 hrs by LC-MS/MS-AR analysis; assay type: ADME, organism-based; conditions: in vivo
[6] = target: T1, Solute carrier family 2, facilitated glucose transporter member 9 (Mus musculus) (UniProt Q3T9X0); assay: Inhibition of mouse EGFP-tagged GLUT9 expressed in HEK293T cells assessed as inhibition rate by measuring relative current at 5 uM by patch clamp electrophysiological analysis relative to control; assay type: cell-based; parameters: scale not given: the % may be the effect or the level left
T1 sequence (whole entry): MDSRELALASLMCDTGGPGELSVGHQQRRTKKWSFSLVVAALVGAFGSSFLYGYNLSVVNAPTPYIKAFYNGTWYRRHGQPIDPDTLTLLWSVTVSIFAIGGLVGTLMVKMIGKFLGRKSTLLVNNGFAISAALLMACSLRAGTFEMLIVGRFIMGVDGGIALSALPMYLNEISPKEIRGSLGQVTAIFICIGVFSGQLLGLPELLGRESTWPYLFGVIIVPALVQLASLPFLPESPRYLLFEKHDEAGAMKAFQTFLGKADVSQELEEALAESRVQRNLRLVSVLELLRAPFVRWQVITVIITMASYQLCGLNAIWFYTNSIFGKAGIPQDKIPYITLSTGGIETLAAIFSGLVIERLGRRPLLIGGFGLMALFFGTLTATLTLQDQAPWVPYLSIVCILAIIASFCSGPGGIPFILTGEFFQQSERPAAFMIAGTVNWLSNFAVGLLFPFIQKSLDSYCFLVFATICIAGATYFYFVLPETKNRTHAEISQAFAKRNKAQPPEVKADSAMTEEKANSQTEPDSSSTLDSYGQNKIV

[7] = Cmax in Sprague-Dawley rat at 2 mg/kg, iv measured upto 24 hrs by LC-MS/MS-AR analysis; assay type: ADME, organism-based; conditions: in vivo
Cytochrome P450 2C19 = Cytochrome P450 2C19 (Homo sapiens, UniProt P33261); assay: Inhibition of CYP2C19 in human liver microsomes measured after 40 mins incubation by LC-MS/MS analysis; assay type: ADME, Microsome
Sequence of Cytochrome P450 2C19 (P33261 whole entry): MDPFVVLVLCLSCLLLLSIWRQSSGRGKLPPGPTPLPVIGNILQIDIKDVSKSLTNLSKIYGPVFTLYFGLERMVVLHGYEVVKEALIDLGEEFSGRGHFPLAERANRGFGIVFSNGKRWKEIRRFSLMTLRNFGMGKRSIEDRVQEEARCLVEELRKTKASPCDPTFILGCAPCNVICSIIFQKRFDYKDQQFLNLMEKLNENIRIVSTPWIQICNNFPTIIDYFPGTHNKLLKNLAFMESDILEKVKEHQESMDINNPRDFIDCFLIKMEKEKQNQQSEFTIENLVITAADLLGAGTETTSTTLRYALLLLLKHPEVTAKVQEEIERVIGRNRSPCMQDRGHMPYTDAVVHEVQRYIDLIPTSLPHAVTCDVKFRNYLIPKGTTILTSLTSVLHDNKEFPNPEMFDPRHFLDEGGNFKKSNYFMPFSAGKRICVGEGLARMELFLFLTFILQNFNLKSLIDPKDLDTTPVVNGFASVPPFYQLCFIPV

Cytochrome P450 2C9 = Cytochrome P450 2C9 (Homo sapiens, UniProt P11712); assay: Inhibition of CYP2C9 in human liver microsomes measured after 40 mins incubation by LC-MS/MS analysis; assay type: ADME, Microsome
Sequence of Cytochrome P450 2C9 (P11712 whole entry): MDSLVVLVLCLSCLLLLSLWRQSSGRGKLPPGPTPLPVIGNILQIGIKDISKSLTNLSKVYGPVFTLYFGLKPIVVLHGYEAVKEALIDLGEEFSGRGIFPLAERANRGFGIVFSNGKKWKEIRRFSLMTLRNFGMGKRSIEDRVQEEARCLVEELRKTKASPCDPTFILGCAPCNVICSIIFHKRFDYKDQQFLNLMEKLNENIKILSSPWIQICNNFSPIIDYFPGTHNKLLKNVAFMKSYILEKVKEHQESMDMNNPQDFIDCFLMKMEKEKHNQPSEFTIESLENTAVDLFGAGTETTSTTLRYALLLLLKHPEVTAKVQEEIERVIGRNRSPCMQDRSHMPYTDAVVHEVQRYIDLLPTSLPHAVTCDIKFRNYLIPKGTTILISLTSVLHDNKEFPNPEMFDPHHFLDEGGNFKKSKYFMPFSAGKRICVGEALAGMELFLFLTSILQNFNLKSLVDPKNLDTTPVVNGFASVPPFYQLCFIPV

[8] = Acute toxicity in Kunming mouse assessed as change in body weight at 250 to 1000 mg/kg, po administered as single dose monitored for 7 days; assay type: organism-based; conditions: in vivo, 168 h, dose 250-1000 mg/kg, time 7 day
[9] = Toxicity in Kunming female mouse assessed as renal injury at 100 mg/kg, po administered every other day for 14 days by H and E staining based assay; assay type: organism-based; conditions: in vivo, 336 h, time 14 day
Mus musculus [10] = organism: Mus musculus; assay: Reduction in serum uric acid level in acute hyperuricemia state Kunming mouse model assessed as SUA level by measuring decrease ratio relative to control; assay type: functional; parameters: concentration or dose not given beside the values
[11] = Clearance in Sprague-Dawley rat at 2 mg/kg, iv measured upto 24 hrs by LC-MS/MS-AR analysis; assay type: ADME, organism-based; conditions: in vivo
[12] = Cmax in Sprague-Dawley rat at 2 mg/kg, po measured upto 24 hrs by LC-MS/MS-AR analysis; assay type: ADME, organism-based; conditions: in vivo
[13] = Subacute toxicity in Kunming male mouse assessed as change in body weight at 100 mg/kg, po administered every other day for 14 days; assay type: organism-based; conditions: in vivo, 336 h, time 14 day
Mus musculus [14] = assay: Reduction in serum uric acid level in acute hyperuricemia state Kunming mouse model assessed as SUA level at 0.25 mg/kg, po (reference value: 1037 +/- 106.59 uM); assay type: functional
Mus musculus [15] = organism: Mus musculus; assay: Reduction in serum uric acid level in chronic hyperuricemia state Kunming mouse model assessed as SUA level (reference value: 660.33 +/- 103.57 uM); assay type: functional
[16] = Acute toxicity in Kunming mouse assessed as fatality rate at 500 mg/kg, po administered as single dose monitored for 7 days; assay type: organism-based; conditions: in vivo, po, 500 mg/kg, 168 h, time 7 day
[17] = Subacute toxicity in Kunming mouse assessed as abnormal behavior at 100 mg/kg, po administered every other day for 14 days; assay type: organism-based; conditions: in vivo, 336 h, time 14 day
Mus musculus [18] = organism: Mus musculus; assay: Reduction in serum uric acid level in acute hyperuricemia state Kunming mouse model assessed as SUA level; assay type: functional
[19] = AUC (0 to infinity) in Sprague-Dawley rat at 2 mg/kg, iv measured upto 24 hrs by LC-MS/MS-AR analysis; assay type: ADME, organism-based; conditions: in vivo
[20] = Acute toxicity in Kunming mouse assessed as convulsions at 250 to 1000 mg/kg, po administered as single dose monitored for 7 days; assay type: organism-based; conditions: in vivo, 168 h, dose 250-1000 mg/kg, time 7 day
[21] = Acute toxicity in Kunming mouse assessed as lethargy at 250 to 1000 mg/kg, po administered as single dose monitored for 7 days; assay type: organism-based; conditions: in vivo, 168 h, dose 250-1000 mg/kg, time 7 day
Mus musculus [22] = assay: Reduction in serum uric acid level in acute hyperuricemia state Kunming mouse model assessed as SUA level by measuring decrease ratio at 1 mg/kg, po relative to control; assay type: functional; parameters: scale not given: the % may be the effect or the level left
[23] = Acute toxicity in Kunming mouse assessed as fatality rate at 1000 mg/kg, po administered as single dose monitored for 7 days; assay type: organism-based; conditions: in vivo, po, 1000 mg/kg, 168 h, time 7 day
Mus musculus [24] = assay: Reduction in serum uric acid level in acute hyperuricemia state Kunming mouse model assessed as SUA level at 1 mg/kg, po (reference value: 1037 +/- 106.59 uM); assay type: functional
[25] = target: T2, Solute carrier family 2, facilitated glucose transporter member 9 (Mus musculus, UniProt Q3T9X0); assay: Inhibition of mouse EGFP-tagged GLUT9 expressed in HEK293T cells assessed as inhibition rate by measuring relative current by patch clamp electrophysiological analysis relative to control; assay type: cell-based
T2 sequence (Q3T9X0 whole entry): T1 sequence (whole entry)

[26] = target: Xanthine dehydrogenase/oxidase (Bos taurus, UniProt P80457); assay: Inhibition of bovine XOD using xanthine as substrate assessed as inhibitory ratio at 10 uM by spectrophotometric analysis relative to control; conditions: cattle
Sequence of Xanthine dehydrogenase/oxidase (P80457 whole entry): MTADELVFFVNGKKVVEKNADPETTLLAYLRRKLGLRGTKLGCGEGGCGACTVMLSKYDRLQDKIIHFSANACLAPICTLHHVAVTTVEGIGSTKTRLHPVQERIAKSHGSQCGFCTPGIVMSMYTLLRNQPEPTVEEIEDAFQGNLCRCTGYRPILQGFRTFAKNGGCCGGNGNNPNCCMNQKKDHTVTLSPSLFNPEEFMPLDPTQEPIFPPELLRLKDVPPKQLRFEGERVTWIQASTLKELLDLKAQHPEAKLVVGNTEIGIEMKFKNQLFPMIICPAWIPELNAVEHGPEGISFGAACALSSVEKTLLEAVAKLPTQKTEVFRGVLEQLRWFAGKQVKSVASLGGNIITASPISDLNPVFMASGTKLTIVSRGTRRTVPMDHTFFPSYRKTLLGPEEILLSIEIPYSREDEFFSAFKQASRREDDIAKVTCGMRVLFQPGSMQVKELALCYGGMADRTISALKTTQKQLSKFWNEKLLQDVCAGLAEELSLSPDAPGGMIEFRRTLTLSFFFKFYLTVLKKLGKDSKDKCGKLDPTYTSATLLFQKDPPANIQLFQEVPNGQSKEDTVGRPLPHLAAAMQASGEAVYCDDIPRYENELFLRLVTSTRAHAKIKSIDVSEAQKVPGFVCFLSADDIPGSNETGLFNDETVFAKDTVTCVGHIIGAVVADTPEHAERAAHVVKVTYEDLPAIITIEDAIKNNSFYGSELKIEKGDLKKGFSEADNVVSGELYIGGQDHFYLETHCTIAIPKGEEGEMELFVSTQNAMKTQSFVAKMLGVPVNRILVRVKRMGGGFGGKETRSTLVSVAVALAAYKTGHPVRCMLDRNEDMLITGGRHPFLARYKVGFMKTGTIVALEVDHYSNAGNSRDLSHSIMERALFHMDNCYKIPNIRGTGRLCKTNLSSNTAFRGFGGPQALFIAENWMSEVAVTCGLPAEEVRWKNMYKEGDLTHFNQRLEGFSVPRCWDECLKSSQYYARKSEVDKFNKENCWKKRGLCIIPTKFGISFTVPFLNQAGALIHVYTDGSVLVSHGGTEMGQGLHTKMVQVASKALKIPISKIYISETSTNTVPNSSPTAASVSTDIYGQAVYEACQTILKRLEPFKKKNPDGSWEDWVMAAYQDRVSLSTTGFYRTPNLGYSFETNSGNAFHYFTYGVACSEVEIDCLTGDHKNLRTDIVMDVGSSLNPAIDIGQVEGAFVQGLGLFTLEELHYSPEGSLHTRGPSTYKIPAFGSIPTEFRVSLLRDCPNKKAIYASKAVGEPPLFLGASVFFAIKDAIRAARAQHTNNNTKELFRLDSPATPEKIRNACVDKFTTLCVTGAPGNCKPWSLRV

Mus musculus [27] = assay: Reduction in serum uric acid level in acute hyperuricemia state Kunming mouse model assessed as SUA level at 0.5 mg/kg, po (reference value: 1037 +/- 106.59 uM); assay type: functional
Rattus norvegicus = assay: Reduction in serum uric acid level in po dosed acute hyperuricemia state Sprague-Dawley rat model assessed as SUA level (reference value: 955.20 +/- 85.56 uM); assay type: functional
[28] = Half life in Sprague-Dawley rat at 2 mg/kg, po measured upto 24 hrs by LC-MS/MS-AR analysis; assay type: ADME, organism-based; conditions: in vivo

For `O=C(O)CCCSc1nc(Nc2ccc(C3CC3)c3ccccc23)c2sccc2n1`, which AUC(0-t) at 24 h [1] is on record?
The AUC(0-t) at 24 h was 1900 ng·h/mL.

What about the Activity [2] of the same molecule?
Its Activity is “Non-Toxic”.

What about the MRT inf [3] of the same molecule?
Its MRT inf is 30 min.

And the Tmax [4]?
The Tmax was 15 min.

And the IC50 (Cytochrome P450 2D6)?
Its IC50 is over 20 µM.

What about the F [5] of the same molecule?
Its F is 20.1%.

And the Activity [6]?
The Activity was 69.7%.

What about the Cmax [7] of the same molecule?
Its Cmax is 6590 ng/mL.

What about the IC50 (Cytochrome P450 2C19) of the same molecule?
The IC50 was 5.93 µM.

What about the IC50 (Cytochrome P450 2C9) of the same molecule?
The IC50 was 2000 nM.

And the Activity [8]?
The Activity was “Toxic”.

What about the Activity [9] of the same molecule?
The Activity was “Toxic”.

What about the Activity (Mus musculus [10]) of the same molecule?
The Activity was 93.2%.

And the clearance [11]?
The clearance was 17 mL/min/kg.

What about the Cmax [12] of the same molecule?
The Cmax was 1270 ng/mL.

And the Activity [13]?
The Activity was “Toxic”.

What about the Activity (Mus musculus [14]) of the same molecule?
The Activity was 945 µM.

And the Activity (Mus musculus [15])?
The Activity was 241 µM.

What about the Activity [16] of the same molecule?
The Activity was “Non-Toxic”.

What about the Activity [17] of the same molecule?
Its Activity is “Non-Toxic”.

And the Activity (Mus musculus [18])?
Its Activity is 191.6 µM.

What about the AUC [19] of the same molecule?
Its AUC is 1922.9 ng·h/mL.

What about the Activity [20] of the same molecule?
The Activity was “Non-Toxic”.

What about the Activity [21] of the same molecule?
The Activity was “Non-Toxic”.

What about the Activity (Mus musculus [22]) of the same molecule?
Its Activity is 89.08%.

And the Activity [23]?
The Activity was “Non-Toxic”.

And the Activity (Mus musculus [24])?
Its Activity is 208.6 µM.

What about the IC50 [25] of the same molecule?
The IC50 was 18.2 µM.

What about the inhibition at 10 µM [26] of the same molecule?
The inhibition at 10 µM was 11.7%.

What about the Activity (Mus musculus [27]) of the same molecule?
Its Activity is 418.6 µM.

What about the Activity (Rattus norvegicus) of the same molecule?
The Activity was 190.8 µM.

What about the half-life [28] of the same molecule?
The half-life was 108 min.
